Measurements from US8808771B2, “Active ingredient delivery system with an amorphous metal salt as carrier” (Firmenich SA, priority 2006, dated 2014).

Assay: Extinction coefficient (phenol band at 280 nm) before and after addition of ACAP, entrapment of naringin
Format: physicochemical
Settings: for E-value (extinction coefficient, phenol band at 280 nm): diluted 1:12 with 30 wt % ethanolic solution, slightly acidic
Method: A conventional double jet precipitation process, which can be operated both batch wise and in a continuous mode, was used. The active ingredient (Naringin) was firstly dissolved in ethanol or ethanol/water medium. A first stream comprising Ca^2+ ions (provided as calcium chloride solution) and a second stream comprising PO4^3− ions (provided as sodium phosphate), were prepared in order to give a resulting carrier component comprising ACAP solution at 10 g/L. A third stream comprising a standard solution of 2 g/L of naringin in 30% ethanol solution was then prepared.
The three streams were jetted separately into a mixing chamber using a standard y-mixer with the reaction being stopped for equal volumes, i.e. 10 ml Ca^2+ stock solution plus 10 ml PO4^3− stock solution into 10 ml naringin. The extinction coefficient (strong phenol band at 280 nm, slightly acidic conditions) was determined after standardized dilution with 30 wt % ethanolic solution (1:12) and was compared before and after the addition of the ACAP.

## C[C@@H]1O[C@@H](O[C@H]2[C@H](Oc3cc(O)c4c(c3)O[C@H](c3ccc(O)cc3)CC4=O)O[C@H](CO)[C@@H](O)[C@@H]2O)[C@H](O)[C@H](O)[C@H]1O [naringin, Naringin]
After addition of ACAP
  E-value (extinction coefficient, phenol band at 280 nm): 1.5
Before addition of ACAP
  E-value (extinction coefficient, phenol band at 280 nm): 3.75
Calculated from the lowering of the E-value
  naringin entrapped by the ACAP: at least 70%
